Test results from patent publication US8168232B2, “Formulations and methods of using nitric oxide mimetics in cancer treatment” (priority 2000, dated 2012).

Experiments:
HIF-1 = HIF-1 accumulation and transactivating activity; type: cell-based; conditions: high concentrations (0.1-1 mM); preliminary studies
Excerpt: The promotor region of uPAR contains binding sites for transcription factors such as activator protein-1 (AP-1), Sp-1/3 and nuclear factor κB (NFκB).

[1] = tested on: HTR-8/SVneo invasive trophoblast cells; experiment: In vitro Matrigel invasion assay, HTR-8/SVneo; type: cell-based; conditions: Homo sapiens, read-out: inhibition of invasiveness of hypoxic cells
Experimental: The chambers consist of cell culture inserts, 6.5 mm in diameter and with a 8 μm pore size membrane. Each membrane was coated with 100 μL of a 1 mg/mL solution of Matrigel diluted in cold serum-free culture medium (EX-CELL 300), and allowed to dry in a laminar flow cabinet for approximately 12 hours. The Matrigel was then rehydrated by incubating it with 100 μL of serum-free medium for approximately 1 hour. After rehydration, cell suspensions containing 5.0×10^4 or 1.0×10^5 cells in 100 μL of medium, containing both serum and the nitric oxide treatments, were added to each well. Culture medium containing serum and the respective nitric oxide treatment were then added to each insert. The cells were incubated for 24 hours under either hypoxic (1% O2) or control (20% O2) conditions. Following incubation, the non-invading cells were removed from the upper surface of the membrane by wiping with a cotton swab. The cells on the lower surface of the membrane were fixed for 10 minutes with Carnoy's fixative (25% acetic acid, 75% methanol), and then stained for approximately 3 hours with a 1% toluidine blue, 1% sodium borate solution. […] Invading cells were then viewed under the microscope at 40× magnification and counted. The invasion index for each treatment was calculated by dividing the number of invading cells by the number of cells which invaded under standard conditions. […]

O=[N+]([O-])OCC(CO[N+](=O)[O-])O[N+](=O)[O-] [GTN, glyceryl trinitrate]
HIF-1 accumulation and transactivating activity (HIF-1): inhibit HIF-1 accumulation and transactivating activity
inhibition at 0.1 µM [1]: 56.2%
